Experimental data taken from ChEMBL document CHEMBL1201862, “PubChem BioAssay data set” (2004).
The source made the active and inactive calls.

What was measured:
[1] = viability loss of HPDE-C7K cells – cell-based, fluorescence, HTS, primary screen (AID 431); type: functional; conditions: Homo sapiens
[2] = HPDE-C7 pancreatic duct cell viability loss – fluorescence, HTS (AID 430); type: functional, cell-based; conditions: Homo sapiens
[3] = viability of uninfected HEp-2 cells – cell-based, HTS, cytotoxicity control for RSV inhibitor project, dose response (AID 2410); type: functional; conditions: human respiratory syncytial virus
[4] = target: T1, Long-chain-fatty-acid--AMP ligase FadD28 (Mycobacterium tuberculosis, UniProt P9WQ59); assay: Fluorescence polarization aasay to screen for inhibitors that compete for the binding of FadD28 to a bisubstrate Measured in Biochemical System Using Plate Reader - 2147-01_Inhibitor_Dose_CherryPick_Activity.; type: functional, Mycobacterium tuberculosis H37Rv
T1 sequence (P9WQ59 whole entry): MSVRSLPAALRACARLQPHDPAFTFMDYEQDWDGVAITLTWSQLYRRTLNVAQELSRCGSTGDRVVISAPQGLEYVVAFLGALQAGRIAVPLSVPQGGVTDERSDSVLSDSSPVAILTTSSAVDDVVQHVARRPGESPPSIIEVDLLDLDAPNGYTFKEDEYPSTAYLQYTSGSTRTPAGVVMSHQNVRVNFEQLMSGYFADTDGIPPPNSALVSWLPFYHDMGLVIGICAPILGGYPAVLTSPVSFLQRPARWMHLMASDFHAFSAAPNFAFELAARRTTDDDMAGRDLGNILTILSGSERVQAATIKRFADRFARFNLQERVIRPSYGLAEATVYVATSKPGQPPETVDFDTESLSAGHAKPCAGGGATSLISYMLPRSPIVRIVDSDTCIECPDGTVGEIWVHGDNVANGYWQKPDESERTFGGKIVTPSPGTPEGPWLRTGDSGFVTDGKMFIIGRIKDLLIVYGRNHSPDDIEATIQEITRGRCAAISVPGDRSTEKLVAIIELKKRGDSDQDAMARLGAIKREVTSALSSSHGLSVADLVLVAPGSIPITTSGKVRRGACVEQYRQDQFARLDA

[5] = target: T2, Caspase-6 (Homo sapiens, UniProt P55212); assay: inhibition of CASP6 peptide cleavage – biochemical, VEID-R110 fluorescence, cherry-pick, dose response (AID 720632)
T2 sequence (P55212 whole entry): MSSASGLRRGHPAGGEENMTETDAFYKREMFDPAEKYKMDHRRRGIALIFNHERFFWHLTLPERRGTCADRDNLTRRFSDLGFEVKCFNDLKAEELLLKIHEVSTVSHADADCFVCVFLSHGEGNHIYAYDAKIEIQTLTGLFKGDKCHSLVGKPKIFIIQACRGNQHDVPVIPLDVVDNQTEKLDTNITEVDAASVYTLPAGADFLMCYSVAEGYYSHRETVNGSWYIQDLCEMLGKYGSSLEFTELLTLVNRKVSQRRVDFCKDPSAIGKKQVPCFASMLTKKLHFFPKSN

[6] = target: T3, RNA-binding protein pos-1 (Caenorhabditis elegans, UniProt G5EF15); assay: disruptors of C. elegans POS-1 RNA interaction – biochemical, fluorescence polarization, dose response (AID 1964);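 also: purified POS-1 fused to maltose binding protein made in E. coli; potency of compounds blocking POS-1 binding to fluorescent RNA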
T3 sequence (G5EF15 whole entry): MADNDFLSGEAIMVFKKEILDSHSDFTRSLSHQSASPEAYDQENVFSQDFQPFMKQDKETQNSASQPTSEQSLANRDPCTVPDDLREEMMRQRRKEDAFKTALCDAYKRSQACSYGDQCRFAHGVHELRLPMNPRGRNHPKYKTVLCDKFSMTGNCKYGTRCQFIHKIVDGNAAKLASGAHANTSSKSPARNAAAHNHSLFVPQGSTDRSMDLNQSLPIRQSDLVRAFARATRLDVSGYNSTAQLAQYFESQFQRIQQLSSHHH

[7] = target: T4, Protein Tat (Human immunodeficiency virus type 1 group M subtype B (isolate HXB2)(HIV-1), UniProt P04608); type: functional;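 also: tat binding to TAR RNA read out by fluorescence polarization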
T4 sequence (P04608 whole entry): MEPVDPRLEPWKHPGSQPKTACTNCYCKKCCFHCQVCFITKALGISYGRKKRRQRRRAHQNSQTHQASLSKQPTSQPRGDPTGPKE

[8] = target: T5, Zinc finger protein mex-5 (Caenorhabditis elegans, UniProt Q9XUB2); assay: potency of MEX-5 RNA-binding blockers – biochemical, C. elegans, fluorescence polarization, dose response (AID 1960)
T5 sequence (Q9XUB2 whole entry): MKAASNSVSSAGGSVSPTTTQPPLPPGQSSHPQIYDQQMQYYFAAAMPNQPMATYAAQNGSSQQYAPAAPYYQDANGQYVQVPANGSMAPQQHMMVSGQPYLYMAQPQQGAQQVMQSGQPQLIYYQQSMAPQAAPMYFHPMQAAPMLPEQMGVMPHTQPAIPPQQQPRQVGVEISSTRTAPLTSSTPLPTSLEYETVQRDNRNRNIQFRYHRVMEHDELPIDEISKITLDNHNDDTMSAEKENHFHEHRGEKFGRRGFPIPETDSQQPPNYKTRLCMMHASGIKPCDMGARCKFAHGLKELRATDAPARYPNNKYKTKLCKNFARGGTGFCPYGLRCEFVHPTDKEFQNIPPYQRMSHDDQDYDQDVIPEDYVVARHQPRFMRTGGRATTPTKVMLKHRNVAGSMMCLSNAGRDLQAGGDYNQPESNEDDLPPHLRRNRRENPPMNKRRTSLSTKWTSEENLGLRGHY

[9] = viability loss in HEK293 cells – cell-based, plate reader, cherry-picked samples, cytotoxicity control, dose response (AID 743446); type: functional
[10] = A549 cell cytotoxicity, dose response, cytotoxicity control, plate reader, cherry-pick, antagonist series (AID 743412); type: functional, cell-based
[11] = toxicity toward HepG2 liver cells – cell-based, plate reader, cherry-pick, antagonist series, cytotoxicity control, dose response (AID 743416); type: functional
[12] = blockers of CRF-binding protein–CRF-R2 complex – cell-based, uHTS hits, 384-well, dose response (AID 651639); type: functional, Homo sapiens; conditions: read-out: IC50_Mean
[13] = target: T6, Estrogen receptor (Homo sapiens, UniProt P03372);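 also: potency for inhibiting coactivator peptide recruitment to the receptor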
T6 sequence (P03372 whole entry): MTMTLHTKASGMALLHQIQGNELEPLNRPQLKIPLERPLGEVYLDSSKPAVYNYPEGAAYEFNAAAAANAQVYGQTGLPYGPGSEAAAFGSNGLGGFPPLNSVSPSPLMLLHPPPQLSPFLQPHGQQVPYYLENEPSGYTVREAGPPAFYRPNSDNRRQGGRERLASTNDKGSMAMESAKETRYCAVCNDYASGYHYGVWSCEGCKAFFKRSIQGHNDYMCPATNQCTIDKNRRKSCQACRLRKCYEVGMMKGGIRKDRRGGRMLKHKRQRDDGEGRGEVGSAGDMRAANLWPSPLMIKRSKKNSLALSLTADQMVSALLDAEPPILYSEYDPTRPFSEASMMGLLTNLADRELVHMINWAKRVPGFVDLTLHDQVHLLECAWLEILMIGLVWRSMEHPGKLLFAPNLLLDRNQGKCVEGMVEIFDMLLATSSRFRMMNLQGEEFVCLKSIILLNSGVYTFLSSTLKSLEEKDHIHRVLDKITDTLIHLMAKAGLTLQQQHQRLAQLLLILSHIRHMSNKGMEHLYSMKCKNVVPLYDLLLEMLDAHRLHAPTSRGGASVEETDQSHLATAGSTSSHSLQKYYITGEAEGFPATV

[14] = target: T7, Corticotropin-releasing factor receptor 2/Corticotropin-releasing factor-binding protein (Homo sapiens, UniProt P24387+Q13324); assay: Dose Response confirmation of uHTS hits for small molecule antagonists of the CRF-binding protein and CRF-R2 receptor complex.; type: functional; conditions: read-out: IC50_Mean
T7 sequence (Q13324 whole entry): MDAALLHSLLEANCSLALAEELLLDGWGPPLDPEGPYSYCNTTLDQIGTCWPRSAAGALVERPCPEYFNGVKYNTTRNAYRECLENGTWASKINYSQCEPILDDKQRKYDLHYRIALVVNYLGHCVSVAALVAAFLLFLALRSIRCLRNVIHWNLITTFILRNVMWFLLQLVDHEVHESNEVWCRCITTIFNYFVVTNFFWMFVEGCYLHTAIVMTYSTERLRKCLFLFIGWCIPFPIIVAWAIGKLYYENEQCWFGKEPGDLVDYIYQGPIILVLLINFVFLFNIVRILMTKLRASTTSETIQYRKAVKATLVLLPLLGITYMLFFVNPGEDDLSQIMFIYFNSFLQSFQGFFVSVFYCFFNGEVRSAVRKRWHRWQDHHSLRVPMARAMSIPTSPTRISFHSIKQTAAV
T7 sequence (P24387 whole entry): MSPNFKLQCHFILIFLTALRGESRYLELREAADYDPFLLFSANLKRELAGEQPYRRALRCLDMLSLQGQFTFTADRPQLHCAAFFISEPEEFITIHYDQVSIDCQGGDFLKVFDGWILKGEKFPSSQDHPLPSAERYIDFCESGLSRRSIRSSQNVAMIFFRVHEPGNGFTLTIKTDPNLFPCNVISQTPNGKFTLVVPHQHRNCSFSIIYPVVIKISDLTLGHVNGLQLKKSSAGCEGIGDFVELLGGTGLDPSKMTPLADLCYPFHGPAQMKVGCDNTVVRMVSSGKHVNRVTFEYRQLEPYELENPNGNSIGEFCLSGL

[15] = target: T7, Corticotropin-releasing factor receptor 2/Corticotropin-releasing factor-binding protein; assay: activators of CRF receptor 2 with binding protein – uHTS hits, confirmation (AID 602473); type: functional; conditions: read-out: EC50_Mean
[16] = target: Disintegrin and metalloproteinase domain-containing protein 17 (Homo sapiens, UniProt P78536); assay: exosite inhibitors of ADAM17, dose response, biochemical (AID 743260)
[17] = test system: H9c2; assay: cells; type: functional, cell-based; conditions: Rattus norvegicus, H9c2, Myocardium;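 also: confirmatory concentration-response retest of ultra-high-throughput screening hits for modulation of myocardial damage; cell death induced by hydrogen peroxide oxidative stress; compound pretreatment for 60 min then peroxide exposure for 2 h; potency is for protecting the cells against peroxide damage rather than for killing them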
[18] = microbe, parasite or virus in culture; type: functional; conditions: Mycobacterium tuberculosis

Chain of Disintegrin and metalloproteinase domain-containing protein 17 (P78536 whole entry, the tested form may be a part): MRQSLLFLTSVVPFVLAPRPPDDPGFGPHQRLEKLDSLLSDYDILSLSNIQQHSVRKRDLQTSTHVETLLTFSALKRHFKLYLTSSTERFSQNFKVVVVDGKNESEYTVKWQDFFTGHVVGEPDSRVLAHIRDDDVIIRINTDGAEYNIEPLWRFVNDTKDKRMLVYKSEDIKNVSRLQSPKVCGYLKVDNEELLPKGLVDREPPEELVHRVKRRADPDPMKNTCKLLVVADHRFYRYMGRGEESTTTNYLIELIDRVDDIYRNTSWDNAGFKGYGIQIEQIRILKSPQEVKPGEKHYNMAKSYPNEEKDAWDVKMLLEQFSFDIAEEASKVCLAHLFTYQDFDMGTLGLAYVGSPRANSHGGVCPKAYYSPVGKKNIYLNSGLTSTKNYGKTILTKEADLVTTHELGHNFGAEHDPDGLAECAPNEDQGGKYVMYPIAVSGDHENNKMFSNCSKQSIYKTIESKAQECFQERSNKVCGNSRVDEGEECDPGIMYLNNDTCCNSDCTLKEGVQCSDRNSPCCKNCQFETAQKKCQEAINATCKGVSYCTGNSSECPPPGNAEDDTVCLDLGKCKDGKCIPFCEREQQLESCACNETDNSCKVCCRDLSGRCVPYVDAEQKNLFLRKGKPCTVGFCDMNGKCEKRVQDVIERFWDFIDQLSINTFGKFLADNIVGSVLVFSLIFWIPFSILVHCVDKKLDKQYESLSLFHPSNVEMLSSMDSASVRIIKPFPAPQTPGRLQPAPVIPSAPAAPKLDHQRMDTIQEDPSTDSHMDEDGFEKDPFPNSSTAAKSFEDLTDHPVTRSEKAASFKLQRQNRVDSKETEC

With `Cc1ccc(-c2nnc(N3CCN(c4ccccn4)CC3)c3ccccc23)cc1` the EC50 [1] was 16.7 µM (active) and the EC50 [2] was 16.5 µM (active).

For `O=C1CCCC2=C1C(c1ccc(Cl)cc1)C1C(=O)c3ccccc3C1=N2` (configuration not stated), the CC50 [3] was 17 µM (active) and the AC50 [4] was > 100 µM (inactive).

For `O=C(NN1C(=O)C2CC=C(Cl)CC2C1=O)c1ccncc1` (configuration not stated), the AC50 [5] was 16.5 µM (active).

For `COc1cccc(C2CC(c3ccccc3)=NN2S(=O)(=O)c2ccccc2)c1OC` (configuration not stated), the AC50 [4] was 62.2 µM (active).

In the case of `Cc1cccc(N2C(=O)/C(=C/c3ccc(CN(CCC#N)S(C)(=O)=O)o3)C(=O)NC2=S)c1`, the EC50 [6] is reported as 67 µM (active), the IC50 [7] is reported as > 100 µM (active) and the EC50 [8] is reported as 41.2 µM (active).

With `CC(C)(C)c1nc2ccc(Cl)cn2c1CC1CCCCC1` the AC50 [9] was > 52 µM (inactive), the AC50 [10] was > 52 µM (inactive) and the AC50 [11] was > 52 µM (inactive).

For `Brc1ccccc1-c1nnc(CSc2nnnn2-c2ccccc2)o1`, the IC50 [12] was 1.36 µM (active), the IC50 [13] was > 50 µM (not active) and the IC50 [14] was 8.93 µM (active). For the same molecule, the EC50 [15] was > 53 µM (inactive).

For `O=C1OCCN1C(=O)[C@H]1[C@H](c2ccc([N+](=O)[O-])cc2)C(c2ccccc2)=NN1c1ccc(Br)cc1`, the IC50 [16] was > 69.5 µM (inactive) and the IC50 [17] was 15.2 µM (active).

For `CC(C)CC(NC(=O)/C(=C/c1ccco1)NC(=O)c1ccc(Br)o1)C(=O)O` (configuration not stated), the IC50 [7] was > 100 µM (active), the IC50 [14] was > 47.1 µM (inactive) and the EC50 [15] was > 53 µM (inactive).

For `COC(=O)C(NC(=O)c1ccc(OC)cc1)(Nc1ncc(S(=O)(=O)c2ccc([N+](=O)[O-])cc2)s1)C(F)(F)F` (configuration not stated), the IC50 [12] was 2.58 µM (active), the CC50 [3] was 13.4 µM (active) and the CC50 [18] was > 40 µM (active). The IC50 [14] was < 0.368 µM (active) and the EC50 [15] was > 53 µM (inactive).

For `Cc1cc(/C=N/NC(=O)C(O)(c2ccccc2)c2ccccc2)c(C)n1-c1cccc(C(=O)O)c1`, the AC50 [5] was 1.78 µM (active).
